Measured values as given in patent US7063861B2, “Bioavailable composition of natural and synthetic HCA” (Sabinsa Corporation, priority 2000, dated 2006).

What was measured:
[1] = oral, before the feeding period; versus untreated controls; cited from earlier work
[2] = rats fed (−) HCA; cited from earlier work
ATP citrate lyase enzyme = settings: in vitro, purified enzyme; cited from earlier work
[3] = Body weight and accumulation of fat in abdomen in CF-1 mice, 10 week oral administration; format: in vivo; settings: 0.05% GAR, 1% HCA; for Body weight: AOM
[4] = tested on: azoxymethane (AOM)-induced formation of aberrant colonic crypts (AC); assay: Azoxymethane (AOM)-induced formation of aberrant colonic crypts in CF-1 mice; format: in vivo; settings: 10 week oral, 0.05% GAR, 1% HCA
[5] = Oral administration of garcinol, HCA and combination: body weight, food and fluid consumption in SKH-1 mice; format: in vivo; settings: 0.05% GAR, 1% HCA, Mean ± SE
TPA-induced ear edema = TPA-induced ear edema in female CF-1 mice; format: in vivo; settings: 5 hours; for Weight per punch: mean ± SE
Experimental: The role of garcinol as a chemopreventive agent has been confirmed in an experiment in which CF-1 mice were treated topically with the inflammation and tumor promoting agent, TPA. [table]

ATP citrate lyase [6] = target: T1, ATP citrate lyase (Homo sapiens, UniProt P53396); assay: Inhibition of ATP citrate lyase in hepatic cells in vitro; format: cell-based; settings: extracellular versus cytosol
T1 construct: an in vitro study done on hepatic cells; endogenous in cells; host or cells: hepatic cells (species and cell type not specified)
T1 sequence (P53396 1-1101): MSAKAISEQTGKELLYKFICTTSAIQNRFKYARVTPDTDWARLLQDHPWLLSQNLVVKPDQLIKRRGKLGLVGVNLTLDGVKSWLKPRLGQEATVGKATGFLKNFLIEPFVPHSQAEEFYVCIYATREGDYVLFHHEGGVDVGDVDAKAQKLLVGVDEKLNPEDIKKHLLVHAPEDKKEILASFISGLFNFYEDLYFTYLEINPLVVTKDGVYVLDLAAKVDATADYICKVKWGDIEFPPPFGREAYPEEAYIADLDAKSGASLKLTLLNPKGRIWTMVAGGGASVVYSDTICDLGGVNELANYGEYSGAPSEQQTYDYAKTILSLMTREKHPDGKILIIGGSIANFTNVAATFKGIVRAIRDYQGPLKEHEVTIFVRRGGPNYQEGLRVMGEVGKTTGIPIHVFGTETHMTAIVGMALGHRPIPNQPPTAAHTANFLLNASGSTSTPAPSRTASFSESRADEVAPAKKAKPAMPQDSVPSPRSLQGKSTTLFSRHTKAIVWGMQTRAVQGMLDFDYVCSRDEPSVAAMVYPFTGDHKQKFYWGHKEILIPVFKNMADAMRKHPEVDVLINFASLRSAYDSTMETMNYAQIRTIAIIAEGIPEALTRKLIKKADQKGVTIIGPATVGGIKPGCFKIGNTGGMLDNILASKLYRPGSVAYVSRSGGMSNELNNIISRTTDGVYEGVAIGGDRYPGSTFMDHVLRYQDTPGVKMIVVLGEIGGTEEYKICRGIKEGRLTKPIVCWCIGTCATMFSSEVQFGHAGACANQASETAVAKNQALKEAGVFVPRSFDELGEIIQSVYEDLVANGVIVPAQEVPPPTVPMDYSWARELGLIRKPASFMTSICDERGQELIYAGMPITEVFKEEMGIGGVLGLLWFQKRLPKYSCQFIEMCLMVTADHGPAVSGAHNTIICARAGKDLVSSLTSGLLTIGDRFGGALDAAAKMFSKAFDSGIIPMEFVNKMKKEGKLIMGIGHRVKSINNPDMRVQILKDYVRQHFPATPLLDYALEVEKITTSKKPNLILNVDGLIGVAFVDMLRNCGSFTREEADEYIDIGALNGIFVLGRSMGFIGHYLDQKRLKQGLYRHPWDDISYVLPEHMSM
Excerpt: In their U.S. Patent, the Inventors addressed an important issue regarding the bioavailability of the HCA compounds. The U.S. Pat. No. 5,783,603 patent described a manufacturing process leading to a unique structure for a potassium salt of HCA, which facilitated its transport across biological membranes, effectively delivering more HCA into the cytosol for the competitive inhibition of ATP citrate lyase. […] Therefore, a 10-fold excess amount of potassium HCA is needed outside of the target cell in order to achieve a concentration of 1/10 that amount in the cytosol. This finding of relatively poor bioavailability of HCA, was confirmed in pre-clinical experiments (14), and points out the need to further improve the bioavailability and efficacy of HCA.

ATP citrate lyase [7] = target: T1, ATP citrate lyase; settings: cited from earlier work
[8] = TPA 1 nmol + GAR 0.1 umol topical on ear
[9] = TPA 1 nmol + GAR 0.5 umol topical on ear

O=C(O)CC(O)(C(=O)O)C(O)C(=O)O (stereo not drawn) [HCA, 1,2-dihydroxypropane-1,2,3-tricarboxylic acid]
food intake [1]: consumed less food
hepatic synthesis of fatty acids and cholesterol [1]: significantly diminished
weight loss and cumulative food intake [2]: weight loss with no decrease in cumulative food intake
inhibition of ATP citrate lyase enzyme (ATP citrate lyase enzyme): potent linear competitive inhibitor
parametrial fat [3]: 1.24 ± 0.06 gm
retroperitoneal fat [3]: 0.79 ± 0.04 gm
Body weight [3]: 37.9 ± 0.66 gm
AC per colon [4]: 7.9
AC per colon, percentage in parentheses (reduction versus control) [4]: 30.7%
Body weight ([5]; 5 weeks): 32.5 ± 0.42 gm
Body weight ([5]; 7 weeks): 34.5 ± 0.59 gm
Body weight ([5]; 10 weeks): 36.8 ± 0.33 gm

C=C(C)[C@@H](CC=C(C)C)C[C@@]12C[C@@H](CC=C(C)C)C(C)(C)[C@@](CC=C(C)C)(C(=O)C(C(=O)c3ccc(O)c(O)c3)=C1O)C2=O [GAR, garcinol]
Percent Inhibition of ear edema (TPA-induced ear edema; [8]): 38.5%
Weight per punch (TPA-induced ear edema; [8]): 12.4 ± 0.81 mg
Percent Inhibition of ear edema (TPA-induced ear edema; [9]): 77.5%
Weight per punch (TPA-induced ear edema; [9]): 9.25 ± 0.66 mg
parametrial fat [3]: 1.21 ± 0.18 gm
retroperitoneal fat [3]: 0.85 ± 0.01 gm
Body weight [3]: 37.3 ± 1.07 gm
AC per colon [4]: 7.8
AC per colon, percentage in parentheses (reduction versus control) [4]: 31.6%
Body weight ([5]; 5 weeks): 32.8 ± 0.37 gm
Body weight ([5]; 7 weeks): 33.9 ± 0.14 gm
Body weight ([5]; 10 weeks): 36.4 ± 0.55 gm

O=C([O-])CC(O)(C(=O)[O-])C(O)C(=O)[O-].[K+].[K+].[K+] (stereo not drawn) [potassium HCA]
excess needed outside the target cell over cytosol concentration (ATP citrate lyase [6]): 10 fold
concentration needed in the cytosol to effectively inhibit ATP citrate lyase (ATP citrate lyase [7]; cytosol): 0.5 mM
extracellular concentration that could inhibit ATP citrate lyase (ATP citrate lyase [7]; hepatic cells, extracellular): 5 mM
